Legend:
Format in all cases: biochemical
[1] = biological target: Fer (Homo sapiens, UniProt P16591); test: Activity against various protein tyrosine kinases: Fer
[2] = biological target: T1, PKD2 (Homo sapiens, UniProt Q9BZL6); test: Activity against various protein tyrosine kinases: PKD2
T1 sequence (Q9BZL6 1-878): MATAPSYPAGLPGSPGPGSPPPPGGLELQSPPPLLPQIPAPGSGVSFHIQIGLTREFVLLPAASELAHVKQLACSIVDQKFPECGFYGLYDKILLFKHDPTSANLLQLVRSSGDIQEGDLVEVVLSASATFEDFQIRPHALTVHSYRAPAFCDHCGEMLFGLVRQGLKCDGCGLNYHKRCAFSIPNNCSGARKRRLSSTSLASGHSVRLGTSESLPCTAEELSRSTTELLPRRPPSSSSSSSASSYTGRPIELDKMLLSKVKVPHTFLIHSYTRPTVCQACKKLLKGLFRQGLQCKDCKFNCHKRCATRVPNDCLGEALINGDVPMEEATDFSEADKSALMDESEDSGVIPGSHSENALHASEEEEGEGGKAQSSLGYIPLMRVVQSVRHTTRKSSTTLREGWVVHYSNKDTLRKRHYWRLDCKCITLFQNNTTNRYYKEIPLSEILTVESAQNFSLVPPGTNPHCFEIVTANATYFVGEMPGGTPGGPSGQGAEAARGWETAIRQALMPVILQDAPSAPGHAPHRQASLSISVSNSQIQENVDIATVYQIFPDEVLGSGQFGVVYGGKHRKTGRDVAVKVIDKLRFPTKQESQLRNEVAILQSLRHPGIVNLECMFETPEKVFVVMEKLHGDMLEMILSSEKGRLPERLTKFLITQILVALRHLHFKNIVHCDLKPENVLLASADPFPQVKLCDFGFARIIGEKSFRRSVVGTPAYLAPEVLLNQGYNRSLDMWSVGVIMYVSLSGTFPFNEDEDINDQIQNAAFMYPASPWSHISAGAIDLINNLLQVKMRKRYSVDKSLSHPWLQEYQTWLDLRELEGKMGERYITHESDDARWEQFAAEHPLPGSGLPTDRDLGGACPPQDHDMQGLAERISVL

[3] = biological target: HCK (Homo sapiens, UniProt P08631); test: Activity against various protein tyrosine kinases: HCK
HCK, sequence (P08631 whole entry, species assumed): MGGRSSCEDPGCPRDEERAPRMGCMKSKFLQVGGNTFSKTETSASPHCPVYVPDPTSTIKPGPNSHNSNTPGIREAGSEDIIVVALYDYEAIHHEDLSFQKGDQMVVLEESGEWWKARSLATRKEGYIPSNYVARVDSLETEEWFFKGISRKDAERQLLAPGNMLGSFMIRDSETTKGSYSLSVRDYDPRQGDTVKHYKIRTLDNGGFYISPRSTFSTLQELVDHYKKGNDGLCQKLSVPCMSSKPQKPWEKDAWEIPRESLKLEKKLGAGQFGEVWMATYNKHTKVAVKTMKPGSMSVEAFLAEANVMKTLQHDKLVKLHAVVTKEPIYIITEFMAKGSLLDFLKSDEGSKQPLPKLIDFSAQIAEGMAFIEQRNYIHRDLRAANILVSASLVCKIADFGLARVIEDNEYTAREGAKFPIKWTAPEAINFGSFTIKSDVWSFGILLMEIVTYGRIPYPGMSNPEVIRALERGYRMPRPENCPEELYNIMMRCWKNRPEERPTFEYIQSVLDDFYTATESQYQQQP

[4] = biological target: AKT2 (Homo sapiens, UniProt P31751); test: Activity against various protein tyrosine kinases: AKT2
AKT2, sequence (P31751 whole entry, species assumed): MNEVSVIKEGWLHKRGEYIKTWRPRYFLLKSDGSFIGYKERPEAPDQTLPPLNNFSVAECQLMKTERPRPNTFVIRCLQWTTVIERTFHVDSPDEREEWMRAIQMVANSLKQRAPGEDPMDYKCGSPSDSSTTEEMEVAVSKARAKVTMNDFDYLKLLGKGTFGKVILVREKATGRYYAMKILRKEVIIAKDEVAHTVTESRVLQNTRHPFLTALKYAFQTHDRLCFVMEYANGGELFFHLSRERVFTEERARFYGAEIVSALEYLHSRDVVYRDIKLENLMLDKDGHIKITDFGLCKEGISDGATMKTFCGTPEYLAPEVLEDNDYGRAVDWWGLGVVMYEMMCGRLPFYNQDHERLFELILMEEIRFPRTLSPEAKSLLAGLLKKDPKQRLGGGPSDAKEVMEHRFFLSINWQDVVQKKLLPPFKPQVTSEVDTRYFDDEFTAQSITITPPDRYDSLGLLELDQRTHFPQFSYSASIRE

[5] = biological target: BTK (Homo sapiens, UniProt Q06187); test: Activity against various protein tyrosine kinases: BTK
BTK, sequence (Q06187 whole entry, species assumed): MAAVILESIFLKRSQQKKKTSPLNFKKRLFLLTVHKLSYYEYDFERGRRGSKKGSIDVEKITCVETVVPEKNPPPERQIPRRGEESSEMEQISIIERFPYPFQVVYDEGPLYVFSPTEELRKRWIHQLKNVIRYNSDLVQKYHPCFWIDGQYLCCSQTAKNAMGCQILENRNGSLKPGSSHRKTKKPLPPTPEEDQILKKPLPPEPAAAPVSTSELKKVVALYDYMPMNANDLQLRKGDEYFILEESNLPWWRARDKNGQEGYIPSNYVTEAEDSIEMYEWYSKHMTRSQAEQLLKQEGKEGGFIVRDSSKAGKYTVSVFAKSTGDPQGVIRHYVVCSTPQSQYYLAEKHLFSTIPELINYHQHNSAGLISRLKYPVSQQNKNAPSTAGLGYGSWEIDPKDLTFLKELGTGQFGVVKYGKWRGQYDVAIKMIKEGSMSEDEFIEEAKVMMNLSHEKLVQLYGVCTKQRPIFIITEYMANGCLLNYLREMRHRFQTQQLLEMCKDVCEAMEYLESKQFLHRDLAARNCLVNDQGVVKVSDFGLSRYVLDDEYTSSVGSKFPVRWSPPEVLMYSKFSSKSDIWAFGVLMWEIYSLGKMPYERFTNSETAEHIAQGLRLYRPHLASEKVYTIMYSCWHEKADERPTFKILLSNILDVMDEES
Experimental: (§1) Using techniques know those of ordinary skill in the art, compounds were tested for activity against various protein tyrosine kinases.

[6] = biological target: PDGFR_alpha (Homo sapiens, UniProt P16234); test: Activity against various protein tyrosine kinases: PDGFR_alpha
PDGFR_alpha, sequence (P16234 24-1089, species assumed): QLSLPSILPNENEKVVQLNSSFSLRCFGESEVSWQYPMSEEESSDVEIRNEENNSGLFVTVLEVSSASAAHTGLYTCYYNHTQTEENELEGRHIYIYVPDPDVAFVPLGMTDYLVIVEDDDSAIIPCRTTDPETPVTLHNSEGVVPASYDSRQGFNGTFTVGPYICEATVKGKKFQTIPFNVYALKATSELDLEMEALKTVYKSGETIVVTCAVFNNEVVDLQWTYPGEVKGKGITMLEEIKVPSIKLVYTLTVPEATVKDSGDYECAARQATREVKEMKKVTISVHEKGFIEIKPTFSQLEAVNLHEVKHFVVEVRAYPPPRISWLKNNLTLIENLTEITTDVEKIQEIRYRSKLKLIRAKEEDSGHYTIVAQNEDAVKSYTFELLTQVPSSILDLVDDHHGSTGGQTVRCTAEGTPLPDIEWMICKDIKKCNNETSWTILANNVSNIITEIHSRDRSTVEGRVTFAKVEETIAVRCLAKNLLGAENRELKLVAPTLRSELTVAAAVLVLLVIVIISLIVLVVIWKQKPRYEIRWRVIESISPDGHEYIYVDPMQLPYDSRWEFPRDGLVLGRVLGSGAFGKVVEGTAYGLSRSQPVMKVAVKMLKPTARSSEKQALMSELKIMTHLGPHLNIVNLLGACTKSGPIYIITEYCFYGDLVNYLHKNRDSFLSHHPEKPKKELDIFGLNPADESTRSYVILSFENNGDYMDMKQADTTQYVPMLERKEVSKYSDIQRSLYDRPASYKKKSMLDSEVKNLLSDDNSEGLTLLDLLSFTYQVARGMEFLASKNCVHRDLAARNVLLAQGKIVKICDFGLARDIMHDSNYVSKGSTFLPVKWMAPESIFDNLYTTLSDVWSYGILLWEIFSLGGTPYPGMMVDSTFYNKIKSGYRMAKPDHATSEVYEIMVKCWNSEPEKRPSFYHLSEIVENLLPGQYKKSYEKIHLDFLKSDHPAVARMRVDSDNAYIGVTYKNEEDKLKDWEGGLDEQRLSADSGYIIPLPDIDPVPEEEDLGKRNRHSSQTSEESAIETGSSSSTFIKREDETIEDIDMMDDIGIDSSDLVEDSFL

[7] = biological target: T2, CHK1 (Homo sapiens, UniProt O14757); test: Activity against various protein tyrosine kinases: CHK1
T2 sequence (O14757 1-476): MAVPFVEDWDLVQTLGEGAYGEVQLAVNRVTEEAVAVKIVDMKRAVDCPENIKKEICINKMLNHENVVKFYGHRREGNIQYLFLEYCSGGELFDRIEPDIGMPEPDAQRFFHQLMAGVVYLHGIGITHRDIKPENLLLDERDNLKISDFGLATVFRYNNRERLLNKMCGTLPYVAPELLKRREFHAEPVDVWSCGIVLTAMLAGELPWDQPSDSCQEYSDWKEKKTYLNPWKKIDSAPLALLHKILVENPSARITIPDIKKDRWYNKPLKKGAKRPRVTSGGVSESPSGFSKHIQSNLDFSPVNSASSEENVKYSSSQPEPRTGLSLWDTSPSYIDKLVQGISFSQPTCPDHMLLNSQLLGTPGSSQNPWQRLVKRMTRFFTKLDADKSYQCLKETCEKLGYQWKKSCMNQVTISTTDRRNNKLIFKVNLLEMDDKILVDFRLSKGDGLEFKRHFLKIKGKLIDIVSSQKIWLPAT

[8] = biological target: ABL(H396P) (Homo sapiens, UniProt P00519, H396P); test: Activity against various protein tyrosine kinases: ABL(H396P)
Experimental: as §1

Fer, sequence (P16591 whole entry, species assumed): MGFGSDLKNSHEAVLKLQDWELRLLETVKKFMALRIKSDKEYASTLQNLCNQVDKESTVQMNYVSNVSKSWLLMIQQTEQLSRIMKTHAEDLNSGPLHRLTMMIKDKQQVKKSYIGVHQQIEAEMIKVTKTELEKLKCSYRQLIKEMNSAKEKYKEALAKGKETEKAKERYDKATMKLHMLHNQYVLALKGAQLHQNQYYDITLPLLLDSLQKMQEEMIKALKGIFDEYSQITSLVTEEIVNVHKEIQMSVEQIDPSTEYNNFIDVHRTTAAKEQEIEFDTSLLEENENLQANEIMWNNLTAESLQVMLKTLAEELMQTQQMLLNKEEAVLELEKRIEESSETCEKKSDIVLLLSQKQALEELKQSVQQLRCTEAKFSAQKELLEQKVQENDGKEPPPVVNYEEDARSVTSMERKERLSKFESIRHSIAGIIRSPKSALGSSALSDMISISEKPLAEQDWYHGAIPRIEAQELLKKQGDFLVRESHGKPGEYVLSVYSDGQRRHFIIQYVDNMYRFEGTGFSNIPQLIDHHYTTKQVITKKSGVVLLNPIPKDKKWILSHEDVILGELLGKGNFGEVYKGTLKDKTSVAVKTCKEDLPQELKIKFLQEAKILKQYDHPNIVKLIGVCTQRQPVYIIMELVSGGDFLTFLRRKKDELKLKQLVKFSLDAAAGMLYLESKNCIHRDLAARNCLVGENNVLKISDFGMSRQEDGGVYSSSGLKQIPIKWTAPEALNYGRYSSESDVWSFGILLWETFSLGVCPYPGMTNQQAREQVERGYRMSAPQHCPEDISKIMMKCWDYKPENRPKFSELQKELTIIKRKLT

SMILES | % Inhibition at 10 nM [1] | % Inhibition at 1 μM [1] | % Inhibition at 10 nM [2] | % Inhibition at 1 μM [2] | % Inhibition at 10 nM [3] | % Inhibition at 1 μM [3] | % Inhibition at 10 nM [4] | % Inhibition at 1 μM [4] | % Inhibition at 10 nM [5] | % Inhibition at 1 μM [5] | % Inhibition at 10 nM [6] | % Inhibition at 1 μM [6] | % Inhibition at 10 nM [7] | % Inhibition at 1 μM [7] | % Inhibition at 10 nM [8] | % Inhibition at 1 μM [8]
COCCOCCOCCNC(=O)OCCN1CCN(c2cc(Nc3ncc(C(=O)Nc4c(C)cccc4Cl)s3)nc(C)n2)CC1 [mPEG3-NHCOO-Dasatinib] | −4% | 5% | 12% | −5% | 98% | 98% | 9% | 7% | 99% | 100% | 58% | 99% | −2% | 0% | 99% | 99%
COCCOCCOCCOCCOCCOCCOCCNC(=O)OCCN1CCN(c2cc(Nc3ncc(C(=O)Nc4c(C)cccc4Cl)s3)nc(C)n2)CC1 [mPEG7-NHCOO-Dasatinib] | −2% | 5% | 3% | 4% | 98% | 99% | 3% | 3% | 99% | 100% | 46% | 98% | 10% | 8% | 99% | 99%

Reference: patent publication US9084828B2, “Oligomer-protein tyrosine kinase inhibitor conjugates” (Nektar Therapeutics, priority 2009, dated 2015)
